Source: patent publication US8258114B2, “Modulation of glucose-6-phosphatase translocase expression” (Isis Pharmaceuticals, Inc., priority 2004, dated 2012)

How the values were obtained:
[1] = tested on: mouse glucose-6-phosphatase translocase mRNA; test: Antisense inhibition of mouse glucose-6-phosphatase translocase mRNA in primary mouse hepatocytes, 50 nM (Table 5); assay type: cell-based; details: 50 nM oligonucleotide, mRNA by real-time PCR, normalized with RIBOGREEN
[2] = tested on: glucose-6-phosphatase translocase mRNA; test: Target mRNA reduction in liver of lean ob/ob+/- mice; assay type: in vivo, mouse; details: 50 mg/kg s.c. twice weekly, five doses
Procedure: (§1) Ob/ob mice have a mutation in the leptin gene which results in obesity and hyperglycemia. […] Seven-week old ob/ob+/−male mice were dosed twice weekly with 50 mg/kg of antisense oligonucleotide, given subcutaneously. A total of five doses were given. glucose-6-phosphatase translocase antisense oligonucleotides used were ISIS 148985 (SEQ ID NO: 118) and ISIS 149008 (SEQ ID NO: 141). Each treatment group was comprised of 4 animals. Animals were sacrificed 48 hours after the last dose of oligonucleotide was administered, and liver triglycerides, liver glycogen content, and target reduction in liver were measured.
Glucose-6-phosphatase translocase mRNA levels in liver were measured at the end of study using RiboGreen™ RNA quantification reagent (Molecular Probes, Inc. Eugene, Oreg.) as taught in previous examples above.
Glucose-6-phosphatase translocase mRNA levels were reduced by approximately 51% in lean mice treated with ISIS 148985, and by approximately 88% in lean mice treated with ISIS 149008, when compared to saline treatment. Thus the antisense compounds ISIS 149008 and ISIS 148985 were effective in reducing liver glucose-6-phosphatase translocase mRNA levels in vivo.

[3] = Liver triglycerides and liver glycogen in lean ob/ob+/- mice; assay type: in vivo, mouse; details: 50 mg/kg s.c. twice weekly, five doses; for Liver glycogen levels: saline approximately 37
Procedure: as §1
Liver triglyceride levels are used to assess hepatic steatosis, or accumulation (poor clearing) of lipids in the liver. Tissue triglyceride levels were measured using a Triglyceride GPO assay from Roche Diagnostics (Indianapolis, Ind.). Liver triglycerides were about 19 mg/dL for saline treated lean mice and were about 14 mg/dL for ISIS 149008-treated lean mice.
Tissue glycogen was measured using the Glucose Trinder Reagent (Sigma-Aldrich, St. Louis, Mo.). Glycogen levels of lean mice treated with saline alone were approximately 37 mg/g of tissue. Mice treated with ISIS 149008 or 148985, the antisense inhibitors of glucose-6-phosphatase translocase, had glycogen levels of approximately 39 mg/g and 36 mg/g, respectively.

ob/ob mice = test: Glycerol tolerance test in ob/ob mice; assay type: in vivo, mouse; details: 25 mg/kg twice weekly, after 6th dose, glycerol 1 g/kg oral
Procedure: The mice described in Example 7 were evaluated for performance on glycerol tolerance tests after the 6th dose of saline or antisense oligonucleotides. This is a functional measure of glucose-6-phosphatase translocase inhibition; i.e., whether the conversion of […] to glucose is impaired by antisense inhibitors of glucose-6-phosphatase translocase.
Glycerol tolerance tests were performed after treatment with saline, ISIS 148985 (SEQ ID NO: 118), or ISIS 149008 (SEQ ID NO: 141). Glycerol was administered by oral gavage via an 18 g gavage needle at a dose of 1 g/kg. Plasma glucose levels were measured for 30, 60, 90 and 120 minutes post-challenge using an Ascencia Glucometer Elite XL (Bayer, Tarrytown, N.Y.) and plotted over time. Area under the curve (AUC) for each treatment graph was calculated.

[4] = rat, in vivo
Procedure: Male Zucker fa/fa rats, about 17 to 18 weeks of age, purchased from Charles River Laboratories (Wilmington, Mass.), are maintained on a normal rodent diet. Animals are placed into treatment groups of 8 animals each. […] Another treatment group received the food-administered daily doses of 3 mg/kg of rosiglitazone alone. Saline-injected animals served as a control treatment group.
Also monitored throughout the study was body composition. Baseline body composition was measured by MRI prior to the start of treatment (BL). Body composition was also measured during week 3 (Wk 3) and during week 5 (Wk 5) of treatment.

| Sequence | % Inhib [1] | % Inhib ([1]; listed as 148985) [%] | Glucose-6-phosphatase translocase mRNA levels in liver, reduction compared to saline [2] | Liver glycogen levels [3] | decrease in AUC of plasma glucose compared to saline, glycerol tolerance test (ob/ob mice) | body fat percentage (in words) [4] | Liver Triglycerides ([3]; saline about 19) |
| --- | --- | --- | --- | --- | --- | --- | --- |
| GCTCCATAGCGAGGACTCGA (chemistry not given here) [ISIS 148985] | approximately 84% | 84 | approximately 51% | ~36 mg/g | did not show significant decrease in AUC | – | – |
| GTGCTTGGCGATGGTACTGA (chemistry not given here) [ISIS 366228] | – | – | – | – | – | did not cause marked increases in body fat percentage | – |
| TATACAAGTCGGTTTGCCCT (chemistry not given here) [ISIS 149008] | ~65% | – | approximately 88% | approximately 39 mg/g | approximately 30% | – | about 14 mg/dL |
